Test results published in patent publication US20230143604A1, “QW DOSING OF GIP RECEPTOR AGONIST PEPTIDE COMPOUNDS AND USES THEREOF” (TAKEDA PHARMACEUTICAL COMPANY LIMITED, priority 2020, published 2023).
Starred links: 1 amine or outer side, 2 acyl side, 3 side chain; linkers in the order of their positions; H or OH if unused. Positions of bridges follow the written chain, without caps; N, C: chain ends. Non-standard residues stand in square brackets, D forms with d. Residues, ends and D or L forms follow the SMILES beside them. Groups on a side chain read outwards from the residue. Chains are numbered I, II in the order given. *: point of attachment. C18 diacid = O=C(O)CCCCCCCCCCCCCCCCC(=O)*; C17 diacid = O=C(O)CCCCCCCCCCCCCCCC(=O)*; γGlu = O=C(O)[C@H](CCC(=O)[*:2])N[*:1]; NMeY = CN[C@@H](Cc1ccc(O)cc1)C(=O)O; AEEA = NCCOCCOCC(=O)O; Aib = CC(C)(N)C(=O)O

Test: Solubility in phosphate buffer pH 7.4
Procedure, shortened: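 3 mg of peptide treated with 100 μL portions of 200 mM phosphate buffer pH 7.4, sonicating/vortexing up to 1 min, with further buffer added until fully dissolved. Solubility then quantified by HPLC.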

[1] = pH 7.4, aqueous buffer, pH 7.4 Phosphate Buffer - Solubility, 200 mM Phosphate buffer pH 7.4
[2] = pH 7.4, solubility in phosphate buffer at pH 7.4, 200 mM phosphate buffer pH 7.4

SMILES	solubility [1]	solubility [2]	solubility (pH 7.4)	solubility (pH 7.4, aqueous buffer)
CC[C@H](C)[C@H](NC(=O)[C@H](Cc1ccccc1)NC(=O)[C@@H](NC(=O)CNC(=O)[C@H](CCC(=O)O)NC(=O)C(C)(C)NC(=O)[C@H](Cc1ccc(O)cc1)NC)[C@@H](C)O)C(=O)N[C@@H](CO)C(=O)N[C@@H](CC(=O)O)C(=O)N[C@@H](Cc1ccc(O)cc1)C(=O)N[C@@H](CO)C(=O)N[C@H](C(=O)NC(C)(C)C(=O)N[C@@H](CC(C)C)C(=O)N[C@@H](CC(=O)O)C(=O)N[C@@H](CCCNC(=N)N)C(=O)NC(C)(C)C(=O)N[C@@H](C)C(=O)N[C@@H](C)C(=O)NC(C)(C)C(=O)N[C@@H](CCCCNC(=O)COCCOCCNC(=O)COCCOCCNC(=O)CC[C@H](NC(=O)CC[C@H](NC(=O)CCCCCCCCCCCCCCCCC(=O)O)C(=O)O)C(=O)O)C(=O)N[C@@H](Cc1ccccc1)C(=O)N[C@H](C(=O)N[C@@H](CC(N)=O)C(=O)N[C@@H](Cc1c[nH]c2ccccc12)C(=O)N[C@@H](CC(C)C)C(=O)N[C@@H](CC(C)C)C(=O)N[C@@H](C)C(=O)N[C@@H](CCC(N)=O)C(=O)N[C@@H](CO)C(=O)N1CCC[C@H]1C(=O)N[C@@H](CO)C(=O)N[C@@H](CO)C(=O)NCC(=O)N[C@@H](C)C(=O)N1CCC[C@H]1C(=O)N1CCC[C@H]1C(=O)N1CCC[C@H]1C(=O)N[C@@H](CO)C(N)=O)C(C)C)[C@@H](C)CC [Compound 107] (H-[NMeY][Aib]EGTFISDYSI[Aib]LDR[Aib]AA[Aib]K([AEEA-AEEA-γGlu-γGlu-C18 diacid])FVNWLLAQSPSSGAPPPS-NH2)	≥ 60 mg/mL	≥ 15 mg/mL	–	–
CC[C@H](C)[C@H](NC(=O)[C@H](Cc1ccccc1)NC(=O)[C@@H](NC(=O)CNC(=O)[C@H](CCC(=O)O)NC(=O)C(C)(C)NC(=O)[C@H](Cc1ccc(O)cc1)NC)[C@@H](C)O)C(=O)N[C@@H](CO)C(=O)N[C@@H](CC(=O)O)C(=O)N[C@@H](Cc1ccc(O)cc1)C(=O)N[C@@H](CO)C(=O)N[C@H](C(=O)NC(C)(C)C(=O)N[C@@H](CC(C)C)C(=O)N[C@@H](CC(=O)O)C(=O)N[C@@H](CCCNC(=N)N)C(=O)NC(C)(C)C(=O)N[C@@H](CCCCNC(=O)COCCOCCNC(=O)COCCOCCNC(=O)CC[C@H](NC(=O)CC[C@H](NC(=O)CCCCCCCCCCCCCCCCC(=O)O)C(=O)O)C(=O)O)C(=O)N[C@@H](C)C(=O)NC(C)(C)C(=O)N[C@@H](CC(N)=O)C(=O)N[C@@H](Cc1ccccc1)C(=O)N[C@H](C(=O)N[C@@H](CC(N)=O)C(=O)N[C@@H](Cc1c[nH]c2ccccc12)C(=O)N[C@@H](CC(C)C)C(=O)N[C@@H](CC(C)C)C(=O)N[C@@H](C)C(=O)N[C@@H](CCC(N)=O)C(=O)N[C@@H](CO)C(=O)N1CCC[C@H]1C(=O)N[C@@H](CO)C(=O)N[C@@H](CO)C(=O)NCC(=O)N[C@@H](C)C(=O)N1CCC[C@H]1C(=O)N1CCC[C@H]1C(=O)N1CCC[C@H]1C(=O)N[C@@H](CO)C(N)=O)C(C)C)[C@@H](C)CC [Compound 109] (H-[NMeY][Aib]EGTFISDYSI[Aib]LDR[Aib]K([AEEA-AEEA-γGlu-γGlu-C18 diacid])A[Aib]NFVNWLLAQSPSSGAPPPS-NH2)	≥ 60 mg/mL	≥ 15 mg/mL	–	–
CC[C@H](C)[C@H](NC(=O)[C@H](Cc1ccccc1)NC(=O)[C@@H](NC(=O)CNC(=O)[C@H](CCC(=O)O)NC(=O)C(C)(C)NC(=O)[C@H](Cc1ccc(O)cc1)NC)[C@@H](C)O)C(=O)N[C@@H](CO)C(=O)N[C@@H](CC(=O)O)C(=O)N[C@@H](Cc1ccc(O)cc1)C(=O)N[C@@H](CO)C(=O)N[C@H](C(=O)NC(C)(C)C(=O)N[C@@H](CC(C)C)C(=O)N[C@@H](CC(=O)O)C(=O)N[C@@H](CCCNC(=N)N)C(=O)NC(C)(C)C(=O)N[C@@H](C)C(=O)N[C@@H](CCC(N)=O)C(=O)NC(C)(C)C(=O)N[C@@H](CCCCNC(=O)COCCOCCNC(=O)COCCOCCNC(=O)CC[C@H](NC(=O)CC[C@H](NC(=O)CCCCCCCCCCCCCCCCC(=O)O)C(=O)O)C(=O)O)C(=O)N[C@@H](Cc1ccccc1)C(=O)N[C@H](C(=O)N[C@@H](CCC(=O)O)C(=O)N[C@@H](Cc1c[nH]c2ccccc12)C(=O)N[C@@H](CC(C)C)C(=O)N[C@@H](CC(C)C)C(=O)N[C@@H](C)C(=O)N[C@@H](CCC(N)=O)C(=O)N[C@@H](CCCCN)C(=O)NCC(=O)O)C(C)C)[C@@H](C)CC [Compound 110] (H-[NMeY][Aib]EGTFISDYSI[Aib]LDR[Aib]AQ[Aib]K([AEEA-AEEA-γGlu-γGlu-C18 diacid])FVEWLLAQKG-OH)	–	–	≥ 15 mg/mL	≥ 60 mg/mL
CC[C@H](C)[C@H](NC(=O)[C@H](CO)NC(=O)[C@H](Cc1ccc(O)cc1)NC(=O)[C@H](CC(=O)O)NC(=O)[C@H](CO)NC(=O)[C@@H](NC(=O)[C@H](Cc1ccccc1)NC(=O)[C@@H](NC(=O)CNC(=O)[C@H](CCC(=O)O)NC(=O)C(C)(C)NC(=O)[C@H](Cc1ccc(O)cc1)NC)[C@@H](C)O)[C@@H](C)CC)C(=O)N[C@@H](C)C(=O)N[C@@H](CC(C)C)C(=O)N[C@@H](CC(=O)O)C(=O)N[C@@H](CCCNC(=N)N)C(=O)NC(C)(C)C(=O)N[C@@H](C)C(=O)N[C@@H](CCC(N)=O)C(=O)NC(C)(C)C(=O)N[C@@H](CCCCNC(=O)CNC(=O)CNC(=O)[C@@H]1CCCN1C(=O)[C@H](C)NC(=O)[C@@H]1CCCN1C(=O)[C@H](C)NC(=O)[C@@H]1CCCN1C(=O)CC[C@H](NC(=O)CCCCCCCCCCCCCCCCC(=O)O)C(=O)O)C(=O)N[C@@H](Cc1ccccc1)C(=O)N[C@H](C(=O)N[C@@H](CC(N)=O)C(=O)N[C@@H](Cc1c[nH]c2ccccc12)C(=O)N[C@@H](CC(C)C)C(=O)N[C@@H](CC(C)C)C(=O)N[C@@H](C)C(=O)N[C@@H](CCC(N)=O)C(=O)N[C@@H](CO)C(=O)N1CCC[C@H]1C(=O)NCC(=O)O)C(C)C [Compound 117] (I: H-[NMeY][Aib]EGTFISDYSIALDR[Aib]AQ[Aib]KFVNWLLAQSPG-OH / II: {C18 diacid-γGlu}-PAPAPGG; amide I:21-II:C)	–	–	≥ 15 mg/mL	≥ 30 mg/mL
CC[C@H](C)[C@H](NC(=O)[C@H](CO)NC(=O)[C@H](Cc1ccc(O)cc1)NC(=O)[C@H](CC(=O)O)NC(=O)[C@H](CO)NC(=O)[C@@H](NC(=O)[C@H](Cc1ccccc1)NC(=O)[C@@H](NC(=O)CNC(=O)[C@H](CCC(=O)O)NC(=O)C(C)(C)NC(=O)[C@H](Cc1ccc(O)cc1)NC)[C@@H](C)O)[C@@H](C)CC)C(=O)N[C@@H](C)C(=O)N[C@@H](CCCCNC(=O)CNC(=O)CNC(=O)CNC(=O)CNC(=O)CNC(=O)CCCCCCCCCCCCCCCCC(=O)O)C(=O)N[C@@H](CC(=O)O)C(=O)N[C@@H](CCCNC(=N)N)C(=O)NC(C)(C)C(=O)N[C@@H](C)C(=O)N[C@@H](CCC(N)=O)C(=O)NC(C)(C)C(=O)N[C@@H](CC(=O)O)C(=O)N[C@@H](Cc1ccccc1)C(=O)N[C@H](C(=O)N[C@@H](CCC(=O)O)C(=O)N[C@@H](Cc1c[nH]c2ccccc12)C(=O)N[C@@H](CC(C)C)C(=O)N[C@@H](CC(C)C)C(=O)N[C@@H](C)C(=O)N[C@@H](CCC(N)=O)C(=O)N[C@@H](CO)C(=O)N1CCC[C@H]1C(=O)NCC(=O)O)C(C)C [Compound 118]	–	–	≥ 15 mg/mL	≥ 30 mg/mL
CC[C@H](C)[C@H](NC(=O)[C@H](CO)NC(=O)[C@H](Cc1ccc(O)cc1)NC(=O)[C@H](CC(=O)O)NC(=O)[C@H](CO)NC(=O)[C@@H](NC(=O)[C@H](Cc1ccccc1)NC(=O)[C@@H](NC(=O)CNC(=O)[C@H](CCC(=O)O)NC(=O)C(C)(C)NC(=O)[C@H](Cc1ccc(O)cc1)NC)[C@@H](C)O)[C@@H](C)CC)C(=O)N[C@@H](C)C(=O)N[C@@H](CC(C)C)C(=O)N[C@@H](CC(=O)O)C(=O)N[C@@H](CCCNC(=N)N)C(=O)NC(C)(C)C(=O)N[C@@H](C)C(=O)N[C@@H](CCC(N)=O)C(=O)NC(C)(C)C(=O)N[C@@H](CCCCNC(=O)COCCOCCNC(=O)COCCOCCNC(=O)CC[C@H](NC(=O)CC[C@H](NC(=O)CCCCCCCCCCCCCCCCC(=O)O)C(=O)O)C(=O)O)C(=O)N[C@@H](Cc1ccccc1)C(=O)N[C@H](C(=O)N[C@@H](CCC(=O)O)C(=O)N[C@@H](Cc1c[nH]c2ccccc12)C(=O)N[C@@H](CC(C)C)C(=O)N[C@@H](CC(C)C)C(=O)N[C@@H](C)C(=O)N[C@@H](CCC(N)=O)C(=O)N[C@@H](CO)C(=O)N1CCC[C@H]1C(=O)NCC(=O)O)C(C)C [Compound 119] (H-[NMeY][Aib]EGTFISDYSIALDR[Aib]AQ[Aib]K([AEEA-AEEA-γGlu-γGlu-C18 diacid])FVEWLLAQSPG-OH)	–	–	≥ 15 mg/mL	≥ 30 mg/mL
CC[C@H](C)[C@H](NC(=O)[C@H](CO)NC(=O)[C@H](Cc1ccc(O)cc1)NC(=O)[C@H](CC(=O)O)NC(=O)[C@H](CO)NC(=O)[C@@H](NC(=O)[C@H](Cc1ccccc1)NC(=O)[C@@H](NC(=O)CNC(=O)[C@H](CCC(=O)O)NC(=O)C(C)(C)NC(=O)[C@H](Cc1ccc(O)cc1)NC)[C@@H](C)O)[C@@H](C)CC)C(=O)N[C@@H](C)C(=O)N[C@@H](CC(C)C)C(=O)N[C@@H](CC(=O)O)C(=O)N[C@@H](CCCNC(=N)N)C(=O)NC(C)(C)C(=O)N[C@@H](C)C(=O)N[C@@H](CCC(N)=O)C(=O)NC(C)(C)C(=O)N[C@@H](CCCCNC(=O)COCCOCCNC(=O)COCCOCCNC(=O)CC[C@H](NC(=O)CC[C@H](NC(=O)CCCCCCCCCCCCCCCC(=O)O)C(=O)O)C(=O)O)C(=O)N[C@@H](Cc1ccccc1)C(=O)N[C@H](C(=O)N[C@@H](CC(N)=O)C(=O)N[C@@H](Cc1c[nH]c2ccccc12)C(=O)N[C@@H](CC(C)C)C(=O)N[C@@H](CC(C)C)C(=O)N[C@@H](C)C(=O)N[C@@H](CCC(N)=O)C(=O)N[C@@H](CO)C(=O)N1CCC[C@H]1C(=O)NCC(=O)O)C(C)C [Compound 125] (H-[NMeY][Aib]EGTFISDYSIALDR[Aib]AQ[Aib]K([AEEA-AEEA-γGlu-γGlu-C17 diacid])FVNWLLAQSPG-OH)	–	–	≥ 15 mg/mL	≥ 30 mg/mL
